Activity calls are given as the source filed them. The calls are words filed in the database; no cut-off is given here.
Legend:
[1] = target: Insulin receptor (Homo sapiens) (UniProt P06213); assay: Inhibition of INSR (unknown origin) at 10 uM relative to control
[2] = target: T1, Serine/threonine-protein kinase LMTK3 (Homo sapiens, UniProt Q96Q04); assay: Inhibition of LMTK3 (unknown origin)
T1 sequence (Q96Q04 whole entry): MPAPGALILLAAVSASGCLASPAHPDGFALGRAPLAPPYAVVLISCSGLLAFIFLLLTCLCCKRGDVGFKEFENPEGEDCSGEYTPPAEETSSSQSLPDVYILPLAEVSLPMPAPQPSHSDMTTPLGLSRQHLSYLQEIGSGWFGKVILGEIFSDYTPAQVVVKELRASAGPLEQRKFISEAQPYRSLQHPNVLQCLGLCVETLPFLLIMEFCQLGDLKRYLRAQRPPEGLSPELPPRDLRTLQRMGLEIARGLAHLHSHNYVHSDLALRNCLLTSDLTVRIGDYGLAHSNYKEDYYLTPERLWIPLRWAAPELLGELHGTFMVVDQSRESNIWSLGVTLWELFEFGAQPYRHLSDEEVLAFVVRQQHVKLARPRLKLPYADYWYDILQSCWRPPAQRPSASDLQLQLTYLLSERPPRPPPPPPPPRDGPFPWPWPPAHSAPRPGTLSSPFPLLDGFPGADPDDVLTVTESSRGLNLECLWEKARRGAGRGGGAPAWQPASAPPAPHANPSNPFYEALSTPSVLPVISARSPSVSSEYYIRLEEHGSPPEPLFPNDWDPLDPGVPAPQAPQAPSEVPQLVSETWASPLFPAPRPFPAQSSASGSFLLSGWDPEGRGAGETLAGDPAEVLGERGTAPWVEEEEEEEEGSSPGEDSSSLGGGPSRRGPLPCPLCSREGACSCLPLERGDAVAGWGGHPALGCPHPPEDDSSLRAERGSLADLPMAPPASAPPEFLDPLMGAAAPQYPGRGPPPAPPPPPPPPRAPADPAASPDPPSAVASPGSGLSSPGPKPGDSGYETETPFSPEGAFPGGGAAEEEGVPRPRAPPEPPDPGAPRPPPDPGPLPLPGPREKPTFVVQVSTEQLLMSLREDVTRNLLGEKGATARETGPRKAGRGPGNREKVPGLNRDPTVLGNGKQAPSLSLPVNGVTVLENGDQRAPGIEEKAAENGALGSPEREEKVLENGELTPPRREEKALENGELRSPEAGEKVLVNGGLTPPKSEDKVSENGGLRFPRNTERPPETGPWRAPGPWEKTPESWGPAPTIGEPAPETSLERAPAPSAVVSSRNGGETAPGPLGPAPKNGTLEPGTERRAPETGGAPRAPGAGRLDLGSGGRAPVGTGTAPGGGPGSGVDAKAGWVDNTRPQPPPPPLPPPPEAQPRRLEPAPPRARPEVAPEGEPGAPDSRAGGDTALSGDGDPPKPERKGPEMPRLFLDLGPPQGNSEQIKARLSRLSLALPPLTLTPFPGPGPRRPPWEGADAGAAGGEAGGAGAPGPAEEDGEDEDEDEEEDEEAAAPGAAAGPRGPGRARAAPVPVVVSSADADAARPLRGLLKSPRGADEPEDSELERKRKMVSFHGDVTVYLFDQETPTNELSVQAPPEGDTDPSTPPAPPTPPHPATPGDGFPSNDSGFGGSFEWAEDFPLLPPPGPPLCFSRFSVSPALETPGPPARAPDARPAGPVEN

[3] = target: BDNF/NT-3 growth factors receptor (Homo sapiens) (UniProt Q16620); assay: Inhibition of TRKB (unknown origin) at 10 uM relative to control
Sequence of BDNF/NT-3 growth factors receptor (Homo sapiens) (Q16620 32-822 limits assumed): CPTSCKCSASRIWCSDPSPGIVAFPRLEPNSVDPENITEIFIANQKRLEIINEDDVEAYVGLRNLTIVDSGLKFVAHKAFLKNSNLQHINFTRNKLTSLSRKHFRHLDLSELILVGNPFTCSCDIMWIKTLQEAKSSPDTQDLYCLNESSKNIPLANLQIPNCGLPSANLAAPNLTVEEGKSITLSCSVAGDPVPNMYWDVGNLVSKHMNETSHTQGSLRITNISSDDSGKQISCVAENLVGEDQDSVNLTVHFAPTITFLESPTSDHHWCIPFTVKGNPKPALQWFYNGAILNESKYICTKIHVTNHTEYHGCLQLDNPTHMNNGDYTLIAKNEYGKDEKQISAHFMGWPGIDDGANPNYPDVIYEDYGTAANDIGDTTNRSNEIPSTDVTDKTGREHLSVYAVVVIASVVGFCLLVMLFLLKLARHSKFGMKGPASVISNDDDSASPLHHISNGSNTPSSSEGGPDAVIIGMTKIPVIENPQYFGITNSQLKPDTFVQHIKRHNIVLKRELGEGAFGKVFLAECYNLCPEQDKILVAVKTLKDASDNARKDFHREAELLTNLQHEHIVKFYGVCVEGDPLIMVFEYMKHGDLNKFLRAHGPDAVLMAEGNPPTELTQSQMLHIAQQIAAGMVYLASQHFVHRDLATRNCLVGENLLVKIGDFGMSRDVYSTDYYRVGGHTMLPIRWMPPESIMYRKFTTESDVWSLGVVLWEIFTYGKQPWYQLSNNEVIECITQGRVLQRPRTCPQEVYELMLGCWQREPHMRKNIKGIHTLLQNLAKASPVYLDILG

[4] = target: T2, Muscle, skeletal receptor tyrosine-protein kinase (Homo sapiens) (UniProt O15146); assay: Inhibition of MUSK (unknown origin) at 10 uM relative to control
T2 sequence (whole entry): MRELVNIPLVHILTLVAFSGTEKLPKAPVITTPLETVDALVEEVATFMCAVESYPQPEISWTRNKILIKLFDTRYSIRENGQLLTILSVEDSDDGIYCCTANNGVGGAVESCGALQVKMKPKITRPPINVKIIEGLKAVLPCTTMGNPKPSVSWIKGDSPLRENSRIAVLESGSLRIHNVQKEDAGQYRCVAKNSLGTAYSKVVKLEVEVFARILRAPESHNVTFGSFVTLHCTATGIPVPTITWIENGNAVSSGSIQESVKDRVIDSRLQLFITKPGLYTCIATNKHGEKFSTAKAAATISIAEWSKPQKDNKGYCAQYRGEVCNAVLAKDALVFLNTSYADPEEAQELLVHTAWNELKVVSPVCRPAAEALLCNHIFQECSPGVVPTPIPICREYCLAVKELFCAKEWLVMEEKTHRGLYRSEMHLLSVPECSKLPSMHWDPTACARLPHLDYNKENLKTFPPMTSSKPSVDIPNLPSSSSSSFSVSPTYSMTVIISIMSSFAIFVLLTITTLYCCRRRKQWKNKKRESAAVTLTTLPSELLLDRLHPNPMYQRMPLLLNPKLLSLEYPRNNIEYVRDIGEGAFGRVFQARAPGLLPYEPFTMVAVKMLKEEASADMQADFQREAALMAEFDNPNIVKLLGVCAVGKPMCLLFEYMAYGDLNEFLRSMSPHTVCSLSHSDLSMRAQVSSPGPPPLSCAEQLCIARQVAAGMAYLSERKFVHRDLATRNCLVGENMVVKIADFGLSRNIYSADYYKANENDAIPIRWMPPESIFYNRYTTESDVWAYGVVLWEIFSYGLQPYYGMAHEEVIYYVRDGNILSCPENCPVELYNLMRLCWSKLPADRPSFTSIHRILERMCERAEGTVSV

[5] = target: Insulin-like growth factor 1 receptor (Homo sapiens) (UniProt P08069); assay: Inhibition of IGF1R (unknown origin) at 10 uM relative to control
Sequence of Insulin-like growth factor 1 receptor (Homo sapiens) (P08069 31-736 limits assumed): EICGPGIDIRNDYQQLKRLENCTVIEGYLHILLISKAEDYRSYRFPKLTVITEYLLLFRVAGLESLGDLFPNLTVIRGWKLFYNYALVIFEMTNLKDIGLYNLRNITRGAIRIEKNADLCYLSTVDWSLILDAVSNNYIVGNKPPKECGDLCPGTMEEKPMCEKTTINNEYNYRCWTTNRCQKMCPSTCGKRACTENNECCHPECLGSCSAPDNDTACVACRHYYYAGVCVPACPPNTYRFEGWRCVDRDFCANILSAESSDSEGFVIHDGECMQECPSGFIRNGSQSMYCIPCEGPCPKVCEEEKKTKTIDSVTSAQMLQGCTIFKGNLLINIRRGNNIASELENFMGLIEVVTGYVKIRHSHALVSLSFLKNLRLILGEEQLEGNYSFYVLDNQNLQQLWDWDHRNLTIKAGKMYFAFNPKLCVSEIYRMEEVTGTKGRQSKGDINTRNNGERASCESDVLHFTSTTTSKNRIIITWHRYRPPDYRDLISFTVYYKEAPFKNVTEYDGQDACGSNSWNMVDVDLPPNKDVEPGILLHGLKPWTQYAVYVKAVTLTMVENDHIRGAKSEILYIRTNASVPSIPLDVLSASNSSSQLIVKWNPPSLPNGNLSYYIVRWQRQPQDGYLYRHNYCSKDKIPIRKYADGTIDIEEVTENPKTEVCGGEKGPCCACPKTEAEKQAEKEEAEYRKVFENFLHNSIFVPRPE
Sequence of Insulin-like growth factor 1 receptor (Homo sapiens) (P08069 741-1367 limits assumed): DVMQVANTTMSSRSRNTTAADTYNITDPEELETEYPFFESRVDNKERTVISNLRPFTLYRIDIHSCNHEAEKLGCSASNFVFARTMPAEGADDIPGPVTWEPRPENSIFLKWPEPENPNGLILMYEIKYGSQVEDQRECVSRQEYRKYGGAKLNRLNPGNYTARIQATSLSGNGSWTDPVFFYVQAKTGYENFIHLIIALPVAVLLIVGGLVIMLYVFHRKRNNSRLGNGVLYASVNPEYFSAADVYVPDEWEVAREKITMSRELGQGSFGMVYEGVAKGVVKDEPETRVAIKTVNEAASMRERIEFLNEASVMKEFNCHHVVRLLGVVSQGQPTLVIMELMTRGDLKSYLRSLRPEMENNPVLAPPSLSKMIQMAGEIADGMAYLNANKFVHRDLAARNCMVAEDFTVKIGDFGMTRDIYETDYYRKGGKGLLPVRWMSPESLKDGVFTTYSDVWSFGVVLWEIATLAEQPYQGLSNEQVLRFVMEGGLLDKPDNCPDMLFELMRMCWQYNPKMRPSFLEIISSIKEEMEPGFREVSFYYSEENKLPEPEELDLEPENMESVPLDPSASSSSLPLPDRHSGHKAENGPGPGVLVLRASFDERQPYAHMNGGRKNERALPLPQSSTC

T47D [6] = assay: Antiproliferative activity against human T47D cells at 20 uM incubated for 6 days by MTT assay relative to control; type: functional
MCF7 [7] = assay: Antiproliferative activity against human MCF7 cells at 20 uM incubated for 6 days by MTT assay relative to control; type: functional
[8] = target: BDNF/NT-3 growth factors receptor (Homo sapiens) (UniProt Q16620); details: 1.52 nM
Description: Inhibition of TRKB (unknown origin) at 1.52 nM relative to control

[9] = target: T2, Muscle, skeletal receptor tyrosine-protein kinase (Homo sapiens); assay: Inhibition of MUSK (unknown origin) at 100 nM relative to control
[10] = target: T3, Serine/threonine-protein kinase LMTK3 (Homo sapiens) (UniProt Q96Q04); assay: Binding affinity to hyper glycosylated LMTK3 (unknown origin) assessed as change in melting temperature at 10 uM by CETSA-based Western blot analysis
T3 sequence (whole entry): T1 sequence (Q96Q04 whole entry)

T47D [11] = assay: Antiproliferative activity against human T47D cells at 10 uM incubated for 6 days by MTT assay relative to control; type: functional
[12] = target: T3, Serine/threonine-protein kinase LMTK3 (Homo sapiens); assay: Binding affinity to full length LMTK3 (unknown origin) assessed as change in melting temperature at 10 uM by CETSA-based Western blot analysis
MCF7 [13] = assay: Antiproliferative activity against human MCF7 cells at 10 uM incubated for 6 days by MTT assay relative to control; type: functional
[14] = target: T3, Serine/threonine-protein kinase LMTK3 (Homo sapiens); assay: Binding affinity to full length LMTK3 (unknown origin) assessed as thermal stabilization of protein at 0.3 to 1 uM at 54 degC incubated for 3 mins followed by 3 min incubated at room temperature by CETSA-based Western blot analysis
T47D [15] = assay: Antiproliferative activity against human T47D cells at 5 uM incubated for 6 days by MTT assay relative to control; type: functional
[16] = target: T3, Serine/threonine-protein kinase LMTK3 (Homo sapiens); assay: Binding affinity to full length LMTK3 (unknown origin) assessed as thermal stabilization of protein at 54 degC incubated for 3 mins followed by 3 min incubated at room temperature by CETSA-based Western blot analysis
MCF7 [17] = assay: Antiproliferative activity against human MCF7 cells at 5 uM incubated for 6 days by MTT assay relative to control; type: functional

Sequence of Insulin receptor (Homo sapiens) (P06213 28-758 limits assumed): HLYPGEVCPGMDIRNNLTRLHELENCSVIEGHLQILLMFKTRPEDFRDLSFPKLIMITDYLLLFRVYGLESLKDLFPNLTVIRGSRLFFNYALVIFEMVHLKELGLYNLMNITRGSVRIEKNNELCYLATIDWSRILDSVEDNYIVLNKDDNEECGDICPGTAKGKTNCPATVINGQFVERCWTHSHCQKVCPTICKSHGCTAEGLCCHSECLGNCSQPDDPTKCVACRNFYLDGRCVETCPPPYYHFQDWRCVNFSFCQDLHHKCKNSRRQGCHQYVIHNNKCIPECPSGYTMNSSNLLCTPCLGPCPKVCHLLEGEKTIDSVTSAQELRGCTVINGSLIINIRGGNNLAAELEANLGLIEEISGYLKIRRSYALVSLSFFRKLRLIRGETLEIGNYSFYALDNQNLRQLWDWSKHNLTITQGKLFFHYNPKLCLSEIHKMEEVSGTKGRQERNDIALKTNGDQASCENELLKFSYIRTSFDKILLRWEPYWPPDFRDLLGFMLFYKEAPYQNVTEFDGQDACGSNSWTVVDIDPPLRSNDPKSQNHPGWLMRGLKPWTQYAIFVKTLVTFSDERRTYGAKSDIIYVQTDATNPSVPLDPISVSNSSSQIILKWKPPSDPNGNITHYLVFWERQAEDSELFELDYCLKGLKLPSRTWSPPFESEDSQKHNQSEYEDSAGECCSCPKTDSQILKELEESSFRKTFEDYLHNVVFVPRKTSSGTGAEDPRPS
Sequence of Insulin receptor (Homo sapiens) (P06213 763-1382 limits assumed): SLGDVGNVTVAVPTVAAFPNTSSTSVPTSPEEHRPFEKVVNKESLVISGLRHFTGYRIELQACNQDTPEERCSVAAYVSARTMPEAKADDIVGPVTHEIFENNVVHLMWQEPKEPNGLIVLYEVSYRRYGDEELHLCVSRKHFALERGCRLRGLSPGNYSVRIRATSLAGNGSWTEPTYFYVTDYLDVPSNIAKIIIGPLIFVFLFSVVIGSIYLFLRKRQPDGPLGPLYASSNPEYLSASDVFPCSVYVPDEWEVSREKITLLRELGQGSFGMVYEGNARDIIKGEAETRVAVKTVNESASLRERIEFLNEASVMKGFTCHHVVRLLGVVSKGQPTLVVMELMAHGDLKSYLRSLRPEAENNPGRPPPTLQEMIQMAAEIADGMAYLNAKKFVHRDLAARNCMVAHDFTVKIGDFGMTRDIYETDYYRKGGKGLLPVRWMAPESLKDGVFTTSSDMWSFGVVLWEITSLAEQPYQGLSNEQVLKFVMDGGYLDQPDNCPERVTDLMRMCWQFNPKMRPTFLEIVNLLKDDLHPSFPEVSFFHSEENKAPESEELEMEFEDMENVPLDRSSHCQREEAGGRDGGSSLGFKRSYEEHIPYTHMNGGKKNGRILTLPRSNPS

| SMILES | inhibition [1] [%] | IC50 [2] [nM] | inhibition [3] [%] | inhibition [4] [%] | inhibition [5] [%] | Activity (T47D [6]) [%] | Activity (MCF7 [7]) [%] | inhibition [8] [%] | inhibition [9] [%] | Activity [10] | Activity (T47D [11]) [%] | Activity [12] | Activity (MCF7 [13]) [%] | Activity [14] | Activity (T47D [15]) [%] | Activity [16] | Activity (MCF7 [17]) [%] |
| --- | --- | --- | --- | --- | --- | --- | --- | --- | --- | --- | --- | --- | --- | --- | --- | --- | --- |
| Cc1ccc(S(=O)(=O)N[C@@H](Cc2ccc(O)cc2)CN2C(=N)NC[C@@H]2CC(C)C)cc1 | 3.9 | 308 | 0.8 | 22.2 | 7.8 |  |  |  |  |  |  |  |  |  |  |  |  |
| Cc1ccc(S(=O)(=O)N[C@@H](Cc2ccc(O)cc2)CN2C(=N)NC[C@@H]2CC2CCCCC2)cc1 | 5.7 | 318 | 25.3 | 79.8 | 16.1 | 50 | 50 |  |  |  |  |  |  |  |  |  |  |
| CN1CCN(c2ccc(C(=O)Nc3n[nH]c4ccc(Cc5cc(F)cc(F)c5)cc34)c(NC3CCOCC3)c2)CC1 [ENTRECTINIB] |  | 4650 |  |  |  |  |  | > 95 | 54.1 |  |  |  |  |  |  |  |  |
| CC(C)C[C@H]1CNC(=N)N1C[C@H](Cc1ccc(O)cc1)NS(=O)(=O)c1ccccc1Cl | 7.3 | 210 | 0.1 | 19.8 | 15.9 |  |  |  |  |  |  |  |  |  |  |  |  |
| N=C1NC[C@H](CC2CCCCC2)N1C[C@H](Cc1ccccc1)NS(=O)(=O)c1ccccc1 | 18.4 | 1610 | 10.6 | 103 | 11.4 |  |  |  |  | Active | 100 | Active | 100 | Active | 60 | Active | 60 |
| C[C@@]1(C(=O)Nc2ccc(F)nc2)CCCN1c1nc(Nc2cc(C3CC3)n[nH]2)c2cccn2n1 [BMS-754807] |  | 3160 |  |  |  |  |  | > 95 | 75.1 |  |  |  |  |  |  |  |  |
| CC(C)C[C@H]1CNC(=N)N1C[C@H](Cc1ccccc1)NS(=O)(=O)c1ccccc1 | 2.3 | 654 | 2 | 27.3 | 8.3 | 100 | 100 |  |  |  |  |  |  |  |  |  |  |
| N=C1NC[C@H](CC2CCCCC2)N1C[C@H](Cc1ccc(O)cc1)NS(=O)(=O)c1ccccc1Cl | 0.1 | 226 | 16 | 56.8 | 16.1 |  |  |  |  |  |  |  |  |  |  | inactive |  |
